In brackets after ≈: the same amount, converted by molar mass. Read-outs that look alike come from different tables or passages of the source.
How the values were obtained:
Protein kinase A = target: T1, Protein kinase A (Bos taurus, UniProt P00517); assay: biochemical; settings: crude enzyme partially purified from the calf heart, histone type IIS, c-AMP
T1 construct: a crude enzyme (partially purified from the calf heart by the method of Kuo et al.); from tissue; host or cells: calf heart
Protocol: (2) Protein kinase A inhibition assay:
Then, the same procedure as the above-described protein kinase C inhibition assay is carried out to calculate IC50.

HeLa S3 cells = assay: HeLa S3 cell growth inhibition assay; assay type: cell-based; settings: for IC50: Homo sapiens, HeLa S3, 72 h, read-out: IC50 HeLa S3
Protocol: (1) HeLa S3 cell growth inhibition assay:
A suspension of HeLa S3 cells (3 x 10^4 cells/ml) in MEM containing 10% fetal serum and 2 mM glutamine is distributed in 0.1 ml portions into the wells of a 96-well microtiter plate and incubated overnight in a C02 incubator at 37°C. Then, 0.05 ml portions of an appropriately diluted solution of the test compound are added. The cells are further cultured in the C02 incubator and the culture supernatant is discarded. After washing with PBS (-) once, 0.1 ml portions of fresh medium are added to the wells and the incubation is continued in the C02 incubator at 37°C for 72 hours. After the culture supernatant is discarded, 0.1 ml portions of culture medium containing 0.02% neutral red are added to the respective wells and the microtiter plate is incubated in the C02 incubator at 37°C for 1 hour to stain the cells. After removal of the culture supernatant, the plate is washed with physiological saline once and the dye is extracted with 0.001 N HC1/30% ethanol. Then, using a microplate reader, the absorbances at 550 nm are measured.

CoLo 320DM cells = assay: CoLo 320DM cell growth inhibition assay; assay type: cell-based; settings: Homo sapiens, read-out: IC50 CoLo 320DM
Protocol: (2) CoLo 320DM cell growth inhibition assay:
Then, the same procedure as (1) is followed and the counting of cells is carried out with a microcell counter.

[1] = read-out: IC50 Protein kinase A (converted)
[2] = 50% growth inhibition concentration, neutral red staining, absorbance at 550 nm, 72 hours incubation after washing
[3] = 50% cell growth inhibition concentration, cell counting with a microcell counter

SMILES	IC50 (Protein kinase A; [1]) [nM]	IC50 (HeLa S3 cells; [2]) [µg/mL]	also measured
COC1C(N(C)C(C)=O)CC2OC1(C)n1c3ccccc3c3c4c(c5c6ccccc6n2c5c31)C(=O)NC4 (stereo not drawn)	59		
CNC1CC2OC(C)(C1OC)n1c3ccccc3c3c4c(c5c6ccccc6n2c5c31)C(=O)NC4OC (single isomer, unassigned) [Compound 16]	383		IC50 HeLa S3 (HeLa S3 cells; [2]): 0.20 µg/mL (≈ 0.403 µM)
CNC1CC2OC(C)(C1OC)n1c3ccccc3c3c4c(c5c6ccccc6n2c5c31)C(=O)NC4OC (single isomer, unassigned) [Compound 17]	242	0.16 (≈ 0.322 µM)	
COC1C(N(C)C=O)CC2OC1(C)n1c3ccccc3c3c4c(c5c6ccccc6n2c5c31)C(=O)NC4 (stereo not drawn) [Compound 3]	20200		
CNC1CC2OC(C)(C1OC)n1c3ccccc3c3c4c(c5c6ccccc6n2c5c31)C(=O)N(C=O)C4 (stereo not drawn) [Compound 4]		0.18 (≈ 0.364 µM)	IC50 (CoLo 320DM cells; [3]): 0.19 µg/mL (≈ 0.384 µM)
CNC1CC2OC(C)(C1OC)n1c3ccccc3c3c4c(c5c6ccccc6n2c5c31)C(=O)N(N)C4=O (stereo not drawn) [Compound 5]			IC50 (CoLo 320DM cells): 0.59 µg/mL (≈ 1.19 µM); IC50 (HeLa S3 cells): 0.75 µg/mL (≈ 1.51 µM)
COC1C(N(C)C(=O)CN)CC2OC1(C)n1c3ccccc3c3c4c(c5c6ccccc6n2c5c31)C(=O)NC4 (stereo not drawn) [Compound 10]		0.051 (≈ 0.0974 µM)	IC50 (CoLo 320DM cells; [3]): 0.55 µg/mL (≈ 1.05 µM)
CNC1CC2OC(C)(C1OC)n1c3ccccc3c3c4c(c5c6ccccc6n2c5c31)C(=O)NC4OC (stereo not drawn) [Compound 11]	322	0.17 (≈ 0.342 µM)	IC50 (CoLo 320DM cells; [3]): 0.14 µg/mL (≈ 0.282 µM)
COC1C(N(C)C(C)=O)CC2OC1(C)n1c3ccccc3c3c4c(c5c6ccccc6n2c5c31)C(=O)NC4=O (stereo not drawn) [Compound 13]	68.9		
CNC1CC2OC(C)(C1OC)n1c3ccccc3c3c4c(c5c6ccccc6n2c5c31)C(=O)N(C)C4=O (stereo not drawn) [Compound 14]			IC50 (CoLo 320DM cells): > 1 µg/mL; IC50 (HeLa S3 cells): 0.78 µg/mL (≈ 1.58 µM)
CNC1CC2OC(C)(C1OC)n1c3ccccc3c3c4c(c5c6ccccc6n2c5c31)C(=O)NC4=O (stereo not drawn) [Compound 15]			IC50 (Protein kinase A; IC50 Protein kinase A): 27.1 nM
CNC1CC2OC(C)(C1OC)n1c3ccccc3c3c4c(c5c6ccccc6n2c5c31)C(=O)NC4OC(C)C (stereo not drawn) [Compound 18]		0.29 (≈ 0.553 µM)	
CCCCOC1NC(=O)c2c1c1c3ccccc3n3c1c1c2c2ccccc2n1C1CC(NC)C(OC)C3(C)O1 (stereo not drawn) [Compound 19]			IC50 (HeLa S3 cells): 0.32 µg/mL (≈ 0.594 µM)
CCOC1NC(=O)c2c1c1c3ccccc3n3c1c1c2c2ccccc2n1C1CC(NC)C(OC)C3(C)O1 (stereo not drawn) [Compound 20]		0.29 (≈ 0.568 µM)	
CN[C@@H]1C[C@H]2O[C@@](C)([C@@H]1OC)n1c3ccccc3c3c4c(c5c6ccccc6n2c5c31)C(=O)N[C@@H]4O [UCN-01, reference compound]			IC50 (Protein kinase A; IC50 Protein kinase A): 41.4 nM; IC50 (HeLa S3 cells): 0.17 µg/mL (≈ 0.352 µM)
